Reference: the NIST ThermoML archive (doi:10.1021/je034048e)

Columns and labels:
[1] = Molar enthalpy of transition or fusion; conditions: Crystal; Adiabatic calorimetry
[2] = for molar entropy: 101.33 kPa, Small (less than 1 g) adiabatic calorimetry

CCCCCCCC/C=C/CCCCCCCC(=O)OCC(COC(=O)CCCCCCC/C=C/CCCCCCCC)OC(=O)CCCCCCC/C=C/CCCCCCCC [trielaidin]
Conditions | Molar enthalpy of transition or fusion [kcal/mol]
[1] | 37.5

[2]
Conditions | Triple point temperature [K] | molar entropy [J/K/mol]
20 K, Crystal | – | 26.56
20 K, Metastable crystal | – | 61.98
25 K, Crystal | – | 44.27
25 K, Metastable crystal | – | 88.54
30 K, Crystal | – | 70.83
30 K, Metastable crystal | – | 115.11
35 K, Crystal | – | 97.4
35 K, Metastable crystal | – | 141.67
40 K, Crystal | – | 132.81
40 K, Metastable crystal | – | 177.09
45 K, Crystal | – | 168.23
45 K, Metastable crystal | – | 212.5
50 K, Crystal | – | 194.8
50 K, Metastable crystal | – | 239.07
55 K, Crystal | – | 230.21
55 K, Metastable crystal | – | 274.48
60 K, Crystal | – | 265.63
60 K, Metastable crystal | – | 309.9
65 K, Crystal | – | 301.05
65 K, Metastable crystal | – | 345.32
70 K, Crystal | – | 327.61
70 K, Metastable crystal | – | 380.74
75 K, Crystal | – | 363.03
75 K, Metastable crystal | – | 416.15
80 K, Crystal | – | 398.44
80 K, Metastable crystal | – | 451.57
85 K, Crystal | – | 433.86
85 K, Metastable crystal | – | 486.99
90 K, Crystal | – | 460.42
90 K, Metastable crystal | – | 513.55
95 K, Crystal | – | 495.84
95 K, Metastable crystal | – | 548.97
100 K, Crystal | – | 531.26
100 K, Metastable crystal | – | 584.39
105 K, Crystal | – | 557.82
105 K, Metastable crystal | – | 619.8
110 K, Crystal | – | 593.24
110 K, Metastable crystal | – | 646.37
120 K, Crystal | – | 646.37
120 K, Metastable crystal | – | 708.35
130 K, Crystal | – | 708.35
130 K, Metastable crystal | – | 770.33
140 K, Crystal | – | 770.33
140 K, Metastable crystal | – | 832.31
150 K, Crystal | – | 823.45
150 K, Metastable crystal | – | 894.29
160 K, Crystal | – | 876.58
160 K, Metastable crystal | – | 947.41
170 K, Crystal | – | 929.7
170 K, Metastable crystal | – | 1009.4
180 K, Crystal | – | 982.83
180 K, Metastable crystal | – | 1062.5
190 K, Crystal | – | 1036
190 K, Metastable crystal | – | 1124.5
200 K, Crystal | – | 1089.1
200 K, Metastable crystal | – | 1177.6
210 K, Crystal | – | 1142.2
210 K, Metastable crystal | – | 1239.6
220 K, Crystal | – | 1186.5
220 K, Metastable crystal | – | 1301.6
230 K, Crystal | – | 1239.6
230 K, Metastable crystal | – | 1363.6
240 K, Crystal | – | 1292.7
240 K, Metastable crystal | – | 1425.5
250 K, Crystal | – | 1337
250 K, Metastable crystal | – | 1487.5
260 K, Crystal | – | 1390.1
260 K, Metastable crystal | – | 1549.5
270 K, Crystal | – | 1443.3
270 K, Metastable crystal | – | 1611.5
280 K, Crystal | – | 1496.4
280 K, Metastable crystal | – | 1673.5
288 K, Crystal | – | 1531.8
288 K, Metastable crystal | – | 1726.6
290 K, Crystal | – | 1549.5
298.15 K, Crystal | – | 1593.8
300 K, Crystal | – | 1602.6
310 K, Crystal | – | 1655.8
314.83 K, Crystal | – | 1673.5
314.83 K, Liquid | – | 2204.7
320 K, Liquid | – | 2213.6
330 K, Liquid | – | 2275.6
Crystal, Adiabatic calorimetry | 314.83 | –
